Results: US7049331B2, “1,2,4-thiadiazole derivatives as melanocortin receptor modulators” (Ortho-McNeil Pharmaceutical, Inc., priority 2001, dated 2006)

What was measured:
[1] = target: T1, melanocortin MC-4 receptor (Homo sapiens, UniProt P32245); assay: Melanocortin MC-4 Receptor Binding Assay (SPA)
T1 construct: purchased Receptor Biology Inc
Procedure, shortened: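 Membranes bound to WGA SPA beads were incubated 16 h at 25° C with 40 pM ¹²⁵I-NDP-MSH and test compound (1 mM stock in 30% DMSO-HEPES pH 7.4). Nonspecific binding set with 1 μM NDP-MSH or α-MSH; percent inhibition from bound cpm.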

[2] = target: MC5-R (Homo sapiens, UniProt P33032); assay: MC5-R binding
[3] = system: human sebocytes; assay: Visual observation of lipid granule formation in sebocytes; assay type: cell-based
Experimental: Semiconfluent cultures of 3T3 mouse fibroblasts (Swiss Albino mouse, ATCC CCL-92) were treated with mitomycin C (4 μg/ml) for 3 hours, trypsinized and seeded at a density of 2.5×10^5/9.5 cm^2 tissue culture plate in Dulbeccos Minimal Essential Medium (DMEM) containing 10% Colorado Calf Serum, PNC (100U/ml), STM (100 μg/ml), L glutamine (0.3 mg/ml), sodium pyruvate (1 mM) and nonessential amino acids (100 μM). The cells were incubated at 37° C. for 24 hours prior to their use as a feeder layer for sebocytes.
Human sebocytes were isolated from Dermatome shavings of postoperative pieces of human skin at 0.4–0.8 mm depths (this part of the skin was previously shown to be enriched in sebaceous glands). Shavings so obtained were treated with 1% Dispase in Iscoves medium containing 10% serum for 20 min at 37° C. The tissue was then placed in 0.3% trypsin/1% EDTA in Phosphate Buffered Saline (PBS) for 10 minutes at 37° C. Following this incubation the cells were gently scraped from the tissue in Growth medium (GM) containing DMEM/F12 media mixture (3:1), supplemented with 8% heat inactivated FBS, 2% heat inactivated human serum (HS), 1 mM sodium pyruvate, epidermal growth factor (10 ng/ml), insulin (10 μg/ml), hydrocortisone (0.4 μg/ml) and +/−cholera toxin (100 μg/ml), L-glutamine and antibiotics. Cells so obtained were filtered through nylon mesh ([…]), centrifuged at 750 RPM, re-suspended in GM and counted.
Resultant cells from the above isolation procedure were plated on the 3T3 feeder layers at 2×10^5/9.5 cm^2 in growth medium and maintained at 37° C. and 5% CO2 for 3 days (Phase I). Following the initial growth period they were transferred to a transition medium (TM) that consisted of DMEM/F12 media supplemented with 1 mM sodium pyruvate, insulin ([…]), transferrin ([…]) and selenium (5.5 μg/ml) (ITS), 2% heat inactivated FBS and 2% heat inactivated human serum as well as +/−cholera toxin (ch.t.) (100 μg/ml), L-glutamine and antibiotics (Phase II). Three days later the cells were changed to differentiation medium (DM), DMEM/F12 supplemented with ITS, 3,3′,5-triido-L-thyronine sodium (3 nM), 1%(v/v) trace element mix and the choice of differentiation agent i.e. bovine pituitary extract (10 μg/ml). This medium was changed every 3 days (Phase III).
Hormones, mixture of hormones i.e. bovine pituitary extract or compounds to be tested were added to the culture at the beginning of phase III. Two criteria were used to evaluate the effect of these materials on sebaceous cultures: 1) visual observations and 2) evaluation of sebaceous lipid accumulation and synthesis. The evaluation of lipid accumulation completed using the Nile red method. This method relies on visualization of neutral lipids by Nile red and quantitation by reading of fluorescence at 535 nm excitation, 580 nm emission using a plate reader. The lipid synthesis was evaluated by radioactive labeling using ^14C acetate and quantified by Bio Rad Phosphoimager (Molecular Imager, FX) using 4.1 Software.
Quantitation of accumulation/inhibition of neutral lipids in sebocytes was accomplished by Nile red binding assay. Briefly, following exposure of sebocytes to test compounds, the cells were allowed to interact with 1 μM Nile red in Hanks buffered saline solution containing DMSO and Pluronic F127. After 4 hours of incubation, washing and incubation overnight, the fluorescence was read at 535 excitation and 580 emission using a fluorescence plate reader.
Following the procedure described above, select compounds of the present invention were tested for visual and Nile red evaluation of lipid accumulation, with results as listed in Table 9.
Following the procedure described above, select compounds of the present invention were tested for their inhibitory effect on differentiation of human sebocytes. […]

[4] = system: human sebocytes; assay: Nile red evaluation of lipid accumulation in sebocytes; assay type: cell-based; conditions: for inhibition at 0.4 µM: read-out: % Inh 0.4 μM (lipid accumulation, Nile red); for inhibition at 0.8 µM: read-out: % Inh 0.8 μM (lipid accumulation, Nile red)
Experimental: The cells were incubated at 37° C. for 24 hours prior to their use as a feeder layer for sebocytes. Human sebocytes were isolated from Dermatome shavings of postoperative pieces of human skin at 0.4-0.8 mm depths (this part of the skin was previously shown to be enriched in sebaceous glands). […] This medium was changed every 3 days (Phase III). Hormones, mixture of hormones i.e. bovine pituitary extract or compounds to be tested were added to the culture at the beginning of phase III. […] The evaluation of lipid accumulation completed using the Nile red method. This method relies on visualization of neutral lipids by Nile red and quantitation by reading of fluorescence at 535 nm excitation, 580 nm emission using a plate reader. The lipid synthesis was evaluated by radioactive labeling using ^14C acetate and quantified by Bio Rad Phosphoimager (Molecular Imager, FX) using 4.1 Software. […] Quantitation of accumulation/inhibition of neutral lipids in sebocytes was accomplished by Nile red binding assay. Briefly, following exposure of sebocytes to test compounds, the cells were allowed to interact with 1 μM Nile red in Hanks buffered saline solution containing DMSO and Pluronic F127. After 4 hours of incubation, washing and incubation overnight, the fluorescence was read at 535 excitation and 580 emission using a fluorescence plate reader. […] Following the procedure described above, select compounds of the present invention were tested for visual and Nile red evaluation of lipid accumulation, with results as listed in Table 9.

[5] = system: rabbit adipocytes; conditions: read-out: EC50 lipolytic activity; cited from earlier work
[6] = system: Male Long-Evans rats, facial nerve compression; assay: In vivo Facial Nerve Compression Model; design: species or system rat; conditions: test compounds p.o. 20 mg/kg bid, αMSH s.c. 70 ug/each 48 hr
Excerpt: The ability of test compound to provide neuro-protective or neuro-regenerative effects was investigated in a facial nerve compression model. Facial nerve motor axons arise exclusively from neurons within the pons in a well-defined nucleus. Facial nerve compression results in retrograde reactions proximal to the lesion site and Wallerian degeneration at its distal part, which causes diminished whisker movement on the lesioned side.
Male Long-Evans rats (150–180 g) were anesthetized with 3–5% isoflorane for induction and 2% for maintenance during the surgical procedures. The right facial nerve was exposed and compressed with forceps for 30 sec at its exit from the stylomastoid foramen. The left facial nerve was sham-operated and served as an internal control. […] The following morphological abnormalities associated with the functional deficit were observed:
After recovery from anesthesia, the rats were randomly divided into groups for dosing with vehicle, αMSH or test compound, with 6 animals per group. αMSH (s.c., 70 ug/each 48 hr) was used as a positive control. Test compounds were dosed p.o. at 20 mg/kg bid for 14 days. Restoration of whisker movement was monitored daily after the operation using two criteria:
(1) frequency of whisker movement on the lesioned side relative to the opposite side (sham-operated) which served as the baseline control
(2) semi-quantitative measurements (0 to 4+) on strength of the whisker muscles, characterized based on observation of the percentage of moved whiskers, muscle tone of whisker muscles, and the position of the nose. For all observations, the experimental design was blind to the behavioral observer.
The recovery rate of the whisker movement was expressed as percentage of its own internal control (sham-operated), as listed in Table 8.

[7] = system: isolated human and non-human primate adipocytes; conditions: concentrations as high as 1 μM; cited from earlier work
[8] = system: rat adipocytes; conditions: read-out: EC50 lipolytic activity; cited from earlier work

T1 sequence (P32245 whole entry): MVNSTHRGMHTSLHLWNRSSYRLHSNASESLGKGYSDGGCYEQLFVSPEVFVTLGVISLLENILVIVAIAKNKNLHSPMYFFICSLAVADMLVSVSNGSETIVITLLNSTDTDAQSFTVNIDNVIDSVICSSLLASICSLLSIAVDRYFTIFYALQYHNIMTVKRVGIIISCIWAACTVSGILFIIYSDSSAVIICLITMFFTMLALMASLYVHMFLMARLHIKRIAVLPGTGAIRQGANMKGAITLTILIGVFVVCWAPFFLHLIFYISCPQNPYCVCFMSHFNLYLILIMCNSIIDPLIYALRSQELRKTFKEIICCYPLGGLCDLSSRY
Sequence of MC5-R (P33032 whole entry): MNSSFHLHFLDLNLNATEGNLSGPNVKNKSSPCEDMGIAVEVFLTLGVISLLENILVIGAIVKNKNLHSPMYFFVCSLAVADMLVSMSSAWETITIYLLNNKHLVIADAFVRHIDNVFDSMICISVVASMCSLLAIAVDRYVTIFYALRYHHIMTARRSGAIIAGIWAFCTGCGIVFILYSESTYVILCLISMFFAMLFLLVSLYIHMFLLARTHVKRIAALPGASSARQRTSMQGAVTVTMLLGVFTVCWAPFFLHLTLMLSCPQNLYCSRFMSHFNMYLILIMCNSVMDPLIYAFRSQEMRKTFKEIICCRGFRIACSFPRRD

Q: With `COc1ccccc1Nc1nc(-c2ccc(C)cc2)[n+](-c2ccccc2OC)s1` [Compound 67] as the molecule, how does the IC50 [1] read?
A: Its IC50 is 130 nM.

Q: And the IC50 [2]?
A: The IC50 was 246 nM.

Q: And the “Visual* 0.4 μM (inhibition of lipid granule formation)” value [3]?
A: Its value is “++ (++ =50%)”.

Q: What about the “Visual* 0.8 μM (inhibition of lipid granule formation)” value [3] of the same molecule?
A: The value was “+++ (+++ = 75%)”.

Q: With `COc1ccccc1Nc1nc(-c2ccccc2OC)[n+](-c2ccccc2OC)s1` [Compound 76] as the molecule, how does the IC50 [1] read?
A: Its IC50 is 332 nM.

Q: And the IC50 [2]?
A: The IC50 was 317 nM.

Q: What about the inhibition at 0.4 µM [4] of the same molecule?
A: The inhibition at 0.4 µM was 48%.

Q: And the inhibition at 0.8 µM [4]?
A: Its inhibition at 0.8 µM is 88%.

Q: And the “Visual* 0.4 μM (inhibition of lipid granule formation)” value [3]?
A: The value was “++ (++ =50%)”.

Q: What about the “Visual* 0.8 μM (inhibition of lipid granule formation)” value [3] of the same molecule?
A: Its value is “+++ (+++ = 75%)”.

Q: For “α-MSH: alpha-melanocyte stimulating hormone peptide, used as a positive control [reference compound]”, which EC50 [5] is on record?
A: The EC50 was 3.7 nM.

Q: What about the “Percent Recovery of whisker movement D9” value ([6]; D9, % of sham-operated side) of the same molecule?
A: Its value is 2.0%.

Q: What about the “Percent Recovery of whisker movement D10” value ([6]; D10) of the same molecule?
A: Its value is 24.6%.

Q: What about the “Percent Recovery of whisker movement D11” value ([6]; D11) of the same molecule?
A: Its value is 60.1%.

Q: What about the “Percent Recovery of whisker movement D12” value ([6]; D12) of the same molecule?
A: The value was 93.8%.

Q: What about the “Percent Recovery of whisker movement D13” value ([6]; D13) of the same molecule?
A: The value was 98.1%.

Q: What about the “Percent Recovery of whisker movement D14” value ([6]; D14) of the same molecule?
A: The value was 100%.

Q: For `COc1ccccc1-c1nc(Nc2ccccc2Cl)s[n+]1-c1ccccc1OC` [Compound 80], which IC50 [1] is on record?
A: Its IC50 is 378 nM.

Q: What about the IC50 [2] of the same molecule?
A: The IC50 was 138 nM.

Q: What about the inhibition at 0.4 µM [4] of the same molecule?
A: The inhibition at 0.4 µM was 61%.

Q: And the inhibition at 0.8 µM [4]?
A: Its inhibition at 0.8 µM is 91%.

Q: And the “Visual* 0.4 μM (inhibition of lipid granule formation)” value [3]?
A: The value was “++ (++ =50%)”.

Q: What about the “Visual* 0.8 μM (inhibition of lipid granule formation)” value [3] of the same molecule?
A: Its value is “++++ (++++ = 100%)”.

Q: What does the source list for “ACTH: melanocortin neuropeptide arising from pro-opiomelanocortin (POMC) (SYSMEHFRWGKPVGKKRRPVKVYPNGAEDESAEAFPLEF; Corticotropin; UniProt P01189 138-176, looked up)”?
A: effect on lipolysis [7]: very little effect on lipolysis; EC50 [5]: 16.4 nM; EC50 [8]: 1.34 nM
